Source: patent US8921642B2, “Conditional-stop dimerizable caspase transgenic animals” (Massachusetts Eye and Ear Infirmary, priority 2008, dated 2014)

What was measured:
native FKBPs = native FKBPs (Homo sapiens, UniProt P62942); settings: cited from earlier work
[1] = test system: cells co-transfected with Cre and dimerizable caspase-3 transgene; assay: LIVE/DEAD analysis of co-transfected cells versus original pSHMFv2Caspase3E; format: cell-based; settings: LIVE/DEAD analysis in the presence of AP20187
Text: To determine the extent of cell ablation, the co-transfected cells were compared with the original pSHMFv2Caspase3E in the presence of AP20187 using LIVE/DEAD analysis (Invitrogen). The number of dying cells and the decrease in cell viability was almost same in the co-transfected group as compared to the original plasmid transfection group (FIGS. 6B-6C).

[2] = test system: beta cells of the pancreas; assay: in vivo beta cell ablation in Ins-Cre double transgenic mice (IPGTT, GTT); parameters: species or system mouse
Experimental: Diabetes is cause by loss of insulin producing beta cells in the pancreas. These cells cannot be replaced by known techniques. A model for impaired glucose tolerance was constructed by crossing the transgenic mouse (line B) described herein with an Ins-Cre mouse (Jackson Labs). […] This model has the characteristics of a pre-diabetic mouse.
The FK506 analogue AP20187 was administered by intraperitoneal (IP) injection. β-cell death was monitored in the animals by intraperitoneal glucose tolerance testing (IPGTT) using standard methodology.
The effect on blood glucose levels was also evaluated using a standard glucose tolerance test (GTT). 30 minutes after a glucose challenge, a blood sample was obtained from the tail vein and a measurement of blood glucose was obtained with a glucose monitor.

[3] = biological target: FKBPs with a single amino acid substitution: Phe36Val (Homo sapiens, UniProt P62942, F37V); settings: cited from earlier work
[4] = test system: inner and outer hair cells; assay: organ of Corti explant culture of double transgenics in medium containing AP20187; format: cell-based, mouse; settings: within 24 hours of incubation
auditory hair cells = assay: in vivo hair cell ablation and hearing loss in Brn3c-Cre double transgenic mice; parameters: species or system mouse
Text: Auditory hair cells are the mechanosensory channel that transduce sound waves to action potentials. Since mammalian hair cells cannot spontaneously regenerate once lost, regenerative medicine for hearing loss would be of great importance, and it has been difficult to establish a reproducible model for ablation of hair cells. The transgenic mice described herein (line D) were mated with a hair cell-specific, Brn3c-Cre mouse from Doug Vetter (Xiang et al., Proc. Natl. Acad. Sci. U.S.A. 94(17):9445-50 (1997); Sage et al., Proc. Nat. Acad. Sci. 103(19):7345-7350 (2006)).
In vivo experiments were also performed. Animals at 6-8 weeks of age were administered AP20187 (10 mg/kg ip) and analyzed six days later. […] Approximately 35˜40% of inner hair cells and 15% of outer hair cells were lost, as judged by Pv3 staining.

[5] = test system: cells cotransfected with pCAN-Cre and pCMVflox (dimerizable caspase); assay: MTT assay of cell viability after dimerizer treatment of transfected cells; format: cell-based; settings: treated 24 hours after transfection, read 48 hours later; only in the group where both Cre-recombinase and transgene were transfected
Experimental: To confirm that the system works, the effect of the dimerizer, AP20187, was examined in vitro on cells that were transfected with either pCAN-Cre or pCMVflox, or cotransfected with both. 24 hours after transfection, cells were treated with the dimerizer AP20187, and 48 hours later cell-viability/dying cells were examined using a standard MTT (3-(4,5-dimethylthiazol-2-yl)-2,5-diphenyltetrazolium bromide) assay.

[6] = test system: Rosa26-CreER (Cre recombinase); assay: tamoxifen-induced Cre recombination in cells from Rosa26-CreER double transgenic mice; format: cell-based, mouse; settings: cells from line F x Rosa26-CreER double transgenic mice, in the presence of tamoxifen
Text: To provide a model for ready confirmation of the function of the conditional-stop dimerizable caspase transgene, the transgenic mice described herein (line F) were crossed with Rosa26-CreER mice. In vitro experiments on cells from the mice were contacted with tamoxifen to induce expression of the Cre recombinase, and the results, shown in FIG. 13, indicate successful recombination and expression of the transgene.

[7] = 10 mg/kg ip, six days later, treated animals
[8] = immunohistochemistry after AP20187 administration

Chain of native FKBPs (P62942 whole entry): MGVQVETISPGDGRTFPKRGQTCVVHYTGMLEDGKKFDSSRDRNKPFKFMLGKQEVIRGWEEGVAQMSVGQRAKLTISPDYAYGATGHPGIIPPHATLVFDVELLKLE
Chain of FKBPs with a single amino acid substitution: Phe36Val (P62942 2-108 F37V limits assumed): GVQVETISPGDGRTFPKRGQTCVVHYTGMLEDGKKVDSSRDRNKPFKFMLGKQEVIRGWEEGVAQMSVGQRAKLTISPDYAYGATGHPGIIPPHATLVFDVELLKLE

| SMILES | binding to the native FKBPs (native FKBPs) | number of dying cells and decrease in cell viability, co-transfected group compared to original plasmid transfection group [1] | blood glucose levels in glucose tolerance test (GTT) ([2]; 30 minutes after a glucose challenge, tail vein blood) | glucose control by intraperitoneal glucose tolerance testing (IPGTT) ([2]; IP injection, Ins-Cre double transgenic animals, more pronounced in females than in males) | binding to FKBPs with Phe36Val substitution [3] | inner hair cell loss [4] [%] | outer hair cell loss [4] [%] | decrease in the amplitude of the auditory brainstem response (ABR) (auditory hair cells; 10 mg/kg ip, analyzed six days later, compared with same-animal measurements before treatment) [%] | inner hair cells lost after drug treatment (auditory hair cells; 10 mg/kg ip, six days later) [%] | ISO-DP (threshold required to obtain a given level of response) (auditory hair cells; [7]) | distortion product otoacoustic emissions (DPOAE) (auditory hair cells; [7]) | changes in the spiral ganglion (auditory hair cells; [8]) | inner hair cells lost, as judged by Pv3 staining (auditory hair cells; [8]) | outer hair cells lost, as judged by Pv3 staining (auditory hair cells; [8]) [%] | cell viability by MTT assay [5] | recombination of the transgene (PCR product on gel) [6] |
| --- | --- | --- | --- | --- | --- | --- | --- | --- | --- | --- | --- | --- | --- | --- | --- | --- |
| CC[C@H](C(=O)N1CCCC[C@H]1C(=O)O[C@H](CCc1ccc(OC)c(OC)c1)c1cccc(OCC(=O)NCC(CNC(=O)COc2cccc([C@@H](CCc3ccc(OC)c(OC)c3)OC(=O)[C@@H]3CCCCN3C(=O)[C@@H](CC)c3cc(OC)c(OC)c(OC)c3)c2)CN(C)C)c1)c1cc(OC)c(OC)c(OC)c1 [AP20187] | do not bind | almost same | significant increased | partial loss of glucose control | bind with high affinity | 38.8 | 32.4 | 60 | 37.8 | significantly increased | significantly decreased | No remarkable changes | 35˜40% | ~15 | significantly reduced |  |
| CC/C(=C(\c1ccccc1)c1ccc(OCCN(C)C)cc1)c1ccccc1 [tamoxifen] |  |  |  |  |  |  |  |  |  |  |  |  |  |  |  | recombined product at 200 bp is present |
